Series [1] addresses soluble human BACE1 catalytic domain (Homo sapiens (Human), UniProt P56817). The experiment in a line: BACE1 HTRF FRET assay. It counts as biochemical. To be noted: Ki calculated from IC50 using the Cheng-Prusoff equation; read-out: BACE-1 Ki.
The target of series [2] is purified human autoBACE-2 (Homo sapiens (Human), UniProt Q9Y5Z0). The experiment in a line: BACE-2 assay (BACE-HTRF, time-resolved endpoint proteolysis). Particulars: Ki calculated from IC50 using the Cheng-Prusoff equation. It counts as biochemical.
Method: Inhibitor IC50s at purified human autoBACE-2 were determined in a time-resolved endpoint proteolysis assay that measures hydrolysis of the QSY7-[sequence]-Eu-amide FRET peptide substrate (BACE-HTRF assay). […] DMSO was present at 5% final concentration in the assay. Following laser excitation of sample wells at 320 nm, the fluorescence signal at 620 nm was collected for 400 ms following a 50 μs delay on a RUBYstar HTRF plate reader (BMG Labtechnologies). Raw RFU data was normalized to maximum (1.0 nM BACE/DMSO) and minimum (no enzyme/DMSO) RFU values. […] The Ki values were calculated from the IC50 using the Cheng-Prusoff equation.
Series [3] has as its system endogenous rat Aβ1-40 (Aβ40) in cortex. The experiment in a line: Cortical Aβ40 in rats after oral dosing (Luminex-based immunodetection). It counts as in vivo. Particulars: read-out: Change in rat cortex Aβ40.
Method: The following procedures were used.
Male CD rats (˜100 g; Crl:CD(SD); Charles River Laboratories, Kingston, N.Y.) were group housed and acclimated to the vivarium for 5-7 days prior to use in a study. Compounds were formulated in 20% hydroxypropyl-β-cyclodextrin and administered orally with a dosing volume of 5 ml/kg for rats. Three h after drug administration, rats were euthanized with excess CO2. The brain was removed from the skull and immediately frozen on dry ice. All tissues were stored at −70° C. until Aβ quantification.
Ab585 was labeled with biotin (b-Ab585) by first dialyzing the antibody sample extensively versus PBS (pH 7.8) to remove impurities, followed by dilution to between 1 and 2 mg/mL protein concentration. EZ-Link Sulfo-NHS-LC-Biotin (Pierce) was dissolved in PBS (pH 7.8) at a concentration of 1 mg/mL immediately prior to use. Ab585 was labeled with EZ-Link Sulfo-NHS-LC-biotin using a 10:1 biotin:antibody ratio by incubation at room temperature for 1 hour. The labeling reaction was quenched by addition of 1.0 M glycine to a final concentration of 0.1 M followed by 10 minute incubation at room temperature. Glycine was removed by extensive dialysis versus PBS.
The antibody was coupled to the beads using the Bio-Plex Amine Coupling Kit (Bio-Rad) as per the manufacturer's recommendations.
Rat cortex Aβ40 levels were measured from guanidine HCl extracts of individual rat cortices using a Luminex-based immunodetection assay. Rat brains were thawed briefly at 37° C. and both mid- and hindbrain regions were removed. The remaining material, consisting primarily of cortex (˜800 mg) was carried through the guanidine extraction procedure. Cortices were added to a 2 ml BioPur tube (Eppendorf) along with a 6.35 mm chrome-coated steel ball and 1.0 ml of sucrose homogenization buffer (20 mM HEPES [pH 7.5], 50 mM KCl, 50 mM sucrose, 2 mM EDTA, 2 mM EGTA supplemented with complete protease inhibitors [Roche, EDTA-free]). Samples were then homogenized by agitation for 1.5 min at 30 cycles/sec in a MM300 tissue mixer (Retsch®). The resulting cortical homogenate was extracted with guanidine-HCl by mixing 67 μl of homogenate with 133 μl of 5 M Guanidine HCl, 50 mM Tris HCl (pH 8.0). To maximize the efficiency of Aβ extraction, samples were vortexed and then sonicated for 2 minutes in an ice bath using an Ultrasonics XL cup horn sonicator at a power setting of 8 (Heat Systems, Inc.). Insoluble material was removed by ultracentrifugation using a using a TLA-55 rotor in a TL-100 benchtop centrifuge (Beckman) at 100,000×g for 30 minutes. The resulting supernatant was then either diluted 1:10 in 5 M guanidine HCl, 0.05 M Tris HCl (pH 8.0) for protein analysis (BCA protein assay, Pierce Biochemicals) or assayed neat for Aβ40 levels. The Luminex rodent Aβ40 assay was performed as follows. First, 96 well filter binding plates (Millipore, catalogue # MSBVN12) were wetted with 100 μl of 1×LAβ40 buffer (0.05 M HEPES [pH 7.5], 0.2% BSA, 0.2% Tween-20, 0.15 M NaCl) by vacuum filtration on a Millipore 96-well manifold. The plate bottom was sealed and 100 μl of 1×LAβ40 buffer was added to each well followed by addition of 50 μl each of G2-10:COOH beads (1000 beads/well) and 50 μl b-Ab585 at 0.5 μg/ml in 1×LAβ40 buffer. Guanidine HCl was added to synthetic rodent Aβ40 standards in order to control for the effect of guanidine in brain extracts on the assay performance. Ten microliters of cortical extract, rodent Aβ40 standards or cortical extract from amyloid precursor protein knockout mice (to define background immunoreactivity) was added to each well. Plates were covered and incubated overnight at 4° C. Following the incubation, wells were cleared by vacuum and washed twice with 100 μl of 1×LAβ40 buffer on a Millipore manifold.
The next series concerns P-gp. As to the kind of experiment: Caco-2 bi-directional permeability. It counts as in vitro ADME. To be noted: human, Caco-2. For orientation: Caco-2 monolayers are a common model of the intestinal barrier.
For a further series, the system named is Caco-2 cell line. The experiment in a line: Caco-2 bi-directional permeability. It counts as in vitro ADME. To be noted: permeability apical to basolateral.

Where two headings read alike, the source gives them in different places.

Sequence of soluble human BACE1 catalytic domain (P56817 75-416): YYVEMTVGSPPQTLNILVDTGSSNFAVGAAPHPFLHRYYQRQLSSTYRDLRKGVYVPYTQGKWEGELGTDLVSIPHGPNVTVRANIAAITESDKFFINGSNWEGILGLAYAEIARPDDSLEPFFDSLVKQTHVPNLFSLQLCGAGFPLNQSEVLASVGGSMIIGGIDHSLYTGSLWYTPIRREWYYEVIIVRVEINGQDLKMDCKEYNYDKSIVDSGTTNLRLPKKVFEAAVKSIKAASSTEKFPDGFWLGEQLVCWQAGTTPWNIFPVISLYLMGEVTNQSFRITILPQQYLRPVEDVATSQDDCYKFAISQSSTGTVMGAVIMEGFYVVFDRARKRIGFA
Sequence of purified human autoBACE-2 (Q9Y5Z0 63-473 limits assumed): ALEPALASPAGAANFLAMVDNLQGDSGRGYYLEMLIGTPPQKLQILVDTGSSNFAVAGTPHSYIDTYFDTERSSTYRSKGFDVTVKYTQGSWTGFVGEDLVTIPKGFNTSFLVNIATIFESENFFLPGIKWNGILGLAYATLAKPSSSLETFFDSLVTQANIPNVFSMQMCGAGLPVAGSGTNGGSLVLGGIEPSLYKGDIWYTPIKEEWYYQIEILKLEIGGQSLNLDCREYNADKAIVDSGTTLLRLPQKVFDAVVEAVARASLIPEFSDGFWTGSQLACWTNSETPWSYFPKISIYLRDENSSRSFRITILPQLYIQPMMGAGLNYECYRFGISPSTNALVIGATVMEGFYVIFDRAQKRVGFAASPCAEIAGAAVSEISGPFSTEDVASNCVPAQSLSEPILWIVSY
Method for Caco-2 cell line: (§1) The bi-directional permeability with efflux potential of selected compounds of the invention vs. otherwise structurally identical iminopyrimidinones (collectively referred to as test compounds, shown in the table below) were assessed using Caco-2 cell line. The Caco-2 cells were maintained in DMEM (Dulbecco's Modified Eagle Medium) containing 10% fetal bovine serum, 1% non-essential amino acids, 2 mM L-glutamine, and 1% penicillin-streptomycin in an incubator at ˜37° C. in an atmosphere of 5% CO2 and about 90% relative humidity. The cell culture medium was changed three times weekly. Caco-2 cell monolayers were grown on polyethylene terephthalate filters using 24-well BD Falcon™ Cell Culture Insert Plates (0.33 cm^2 insert area, 1 μm pore size; BD BioSciences, Bedford, Mass.). The culture medium of the plate was changed every other day until used for the transport experiment (21-28 days post seeding).
(§2) The transport buffer (TM) was Hank's balanced salt solution (HBSS) with 10 mM HEPES and 25 mM glucose (pH 7.4) for dosing and TM with 4% bovine serum albumin for receiver (pH 7.4). The bi-directional permeability of the test compounds were tested at concentrations of 1, 10 and 100 μM was measured in triplicate with 2-hr incubation. The cell monolayer integrity was monitored with pre- and post-experimental trans-epithelial electrical resistance and post-experimental Lucifer Yellow (LY) permeability with 1 hr incubation.
(§3) The apparent permeability, recovery and efflux ratio values were calculated using the following equations:
(§4) where, • dCR/dt: The slope of the accumulative concentration in the receiver compartment versus time incubation (μM·s^−1) • C0hr: Donor concentration (μM) immediately after dosing • CD, final: Donor concentration (μM) at the end of incubation • S: Membrane surface area (cm^2) • VD: Volume of donor compartment (mL) • VR: Volume of receiver compartment (mL) • Papp-BLtoAP: Permeability from basolateral (BL) to apical (AP) transport
Method for P-gp: as §1, §2, §3, §4

As to `COc1cnc(C(=O)Nc2cc(F)c(F)c([C@]3(C)CS(=O)(=O)N(C)C(=N)N3)c2)cn1` [Example 40di], the Ki (in general, the dissociation constant of the complex between target and ligand, obtained from inhibition or displacement) in series [1] was 1.05 nM; in series [2], 2.15 nM. For the same compound, the change in vivo at 10 mg/kg in series [3] (rats, 3 h after a 10 mg/kg oral dose, vs vehicle cohort) is -38%. Moreover, the efflux ratio (in general, the permeability from basolateral to apical divided by that in the opposite direction, in the common usage) at 2 h in the series with P-gp stood at 2.
For the compound `CN1C(=N)N[C@](C)(c2cc(NC(=O)c3ccc(Cl)cn3)ccc2F)CC1=O` [Iminopyrimidinone 34, reference compound], the change in vivo at 10 mg/kg in series [3] (po, 3 h) is -19%. Also, the “Caco-2 AP→BL” value with Caco-2 cell line amounted to 0 nm/s.
As to `Cc1ccc(C(=O)Nc2ccc(F)c([C@]3(C)CC(=O)N(C)C(=N)N3)c2)nc1` [Iminopyrimidinone 35], the “Caco-2 AP→BL” value in the series with Caco-2 cell line is listed as 0 nm/s.

These data come from patent US8940748B2, “Iminothiadiazine dioxide compounds as BACE inhibitors, compositions, and their use” (Merck Sharp & Dohme Corp., priority 2009, dated 2015).
